Source: PMC11249626, “Fluorophore-Labeled Pyrrolones Targeting the Intracellular Allosteric Binding Site of the Chemokine Receptor CCR1” (ACS Pharmacology & Translational Science, 2024)
pIC50, pKi: −log10 of the molar value. Where two headings read alike, the source gives them in different places.

How the values were obtained:
[1] = biological target: T1, human chemokine receptor CCR2 (Homo sapiens, UniProt P41597); test: Cellular NanoBiT β-arrestin recruitment assay; format: cell-based; conditions: in the presence of CCL2 (10 nM), HEK293T cells
T1 construct: expressed in transfected cells; host or cells: HEK293T, transient
Description: (PerkinElmer, Groningen, NL).
Cellular NanoBiT β-arrestin recruitment assays: Chemokine-induced β-arrestin-2 recruitment to chemokine receptors CCR1 and CCR2 was monitored using a nanoluciferase complementation -based assay (NanoBiT, Promega). 17-19 5 x 10^6 HEK293T cells were plated in 10 cm dishes and cultured for 24 h before transfection with vectors encoding for the human chemokine receptor CCR1 or CCR2 C-terminally fused with SmBiT and β-arrestin 2 N-terminally fused with LgBiT. 24 h after transfection cells were harvested, distributed into white 96-well plates (5 × 10^4 cells per well) and incubated for 1 h at 37 °C with compound 23 at concentrations ranging from 10 nM to 10 µM. The endogenous chemokine ligand CCL5 (3 nM, for CCR1) or CCL2 (10 nM, for CCR2) was then added, and luminescence generated upon nanoluciferase complementation in the presence of coelenterazine H was measured with a Mithras LB940 luminometer (Berthold Technologies) for 20 min. […]
(§1) Finally, the top 5% of the identified hits were subsequently docked to a homology model of CCR1 (vide infra). After visual examination of the obtained binding modes 24 hit compounds were identified for further investigation .
(§2) Molecular docking: For the docking studies in the course of our virtual screening campaign, the CCR1 protein was […]
(§3) 27, 28 CCR1 structure was optimized using the Quickprep and structure preparation wizard in MOE 24 using CHARMM27 forcefield. The protein was saved in mol2 format and loaded in GOLD.25, 26 The amino acids defining the IABS were listed in a text file to define the docking cavity. 50 GA runs were performed for docking CCR2-RA-[R] (4-[R]) and SN_12 (43), with the generated solutions clustered based on their RMSD with the threshold set to 0.75 Å using the complete linkage method. Docking runs were performed using ChemScore. […]

[2] = biological target: T2, human chemokine receptor CCR1 (Homo sapiens, UniProt P32246); test: Cellular NanoBiT miniGi recruitment assay; format: cell-based; conditions: in the presence of CCL5 (3 nM)
T2 construct: expressed in transfected cells; host or cells: HEK293T, transient
T2 sequence (P32246 1-355): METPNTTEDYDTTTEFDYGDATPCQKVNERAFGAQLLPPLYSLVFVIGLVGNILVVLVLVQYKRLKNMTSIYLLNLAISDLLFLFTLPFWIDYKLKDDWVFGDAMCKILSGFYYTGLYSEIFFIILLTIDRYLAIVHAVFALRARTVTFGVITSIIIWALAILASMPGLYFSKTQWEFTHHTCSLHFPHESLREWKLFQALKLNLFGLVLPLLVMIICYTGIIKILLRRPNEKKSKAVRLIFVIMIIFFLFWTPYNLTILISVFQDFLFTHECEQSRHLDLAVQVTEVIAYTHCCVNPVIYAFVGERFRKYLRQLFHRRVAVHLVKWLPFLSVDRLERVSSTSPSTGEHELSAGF
Description: Technologies) for 20 min.
Cellular NanoBiT miniGi recruitment assay s: Chemokine-induced Gi recruitment to the chemokine receptor CCR1 was monitored using a nanoluciferase complementation -based assay (NanoBiT, Promega). 20 5 x 10^6 HEK293T cells were plated in 10 cm dishes and cultured for 24 h before transfection with vectors encoding for the human chemokine receptor CCR1 C-terminally fused with SmBiT and miniGi (mG, engineered GTPase domain of Gα subunit) N-terminally fused with LgBiT. 24 h after transfection cells were harvested, distributed into white 96 -well plates (5 × 10^4 cells per well) and incubated for 1 h at 37 °C with compound 23 at concentrations ranging from 10 nM to 100 µM. The endogenous chemokine ligand CCL5 (3 nM, for CCR1) was then added, and luminescence generated upon nanoluciferase complementation in the presence of coelenterazine H was measured with a Mithras LB940 luminometer (Berthold Technologies) for 20 min. […]
as §1, §2, §3

[3] = biological target: vasopressin-2 receptor (V2R); set-up: method as in PMID 17435162; conditions: cited from earlier work

T1 sequence (P41597 whole entry): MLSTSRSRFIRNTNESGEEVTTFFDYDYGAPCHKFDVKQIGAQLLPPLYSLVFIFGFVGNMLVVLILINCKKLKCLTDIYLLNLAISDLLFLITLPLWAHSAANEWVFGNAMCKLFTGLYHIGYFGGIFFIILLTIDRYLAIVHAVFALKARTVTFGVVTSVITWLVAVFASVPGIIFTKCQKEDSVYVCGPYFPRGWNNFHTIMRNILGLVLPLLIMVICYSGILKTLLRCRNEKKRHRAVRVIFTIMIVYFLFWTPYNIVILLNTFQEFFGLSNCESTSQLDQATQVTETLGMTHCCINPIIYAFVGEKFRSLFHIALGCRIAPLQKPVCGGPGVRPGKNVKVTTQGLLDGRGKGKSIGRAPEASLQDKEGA

pIC50 ([1]; read-out: IC50 (CCR2), β-arrestin recruitment): 3.73 | IC50 ([1]; read-out: pIC50(CCR2), β-arrestin recruitment (converted)): 195 µM | pIC50 ([2]; read-out: IC50, miniGi recruitment): 4.16 | IC50 ([2]; read-out: pIC50, miniGi recruitment (converted)): 67.6 µM
Structure (SMILES): O=C(C1=C(O)C(=O)N(CCc2ccc(O)cc2)C1c1ccc(F)cc1)c1ccccc1 (racemic) [compound 23]
pKi [3]: ~7.15
